The text below walks through data of patent US11766447B2, “3′3′-cyclic dinucleotide analogue comprising a cyclopentanyl modified nucleotide as sting modulator” (INSTITUTE OF ORGANIC CHEMISTRY AND BIOCHEMISTRY ASCR, V.V.I., priority 2019, dated 2023).

Like-named read-outs stand apart in the source and are kept apart here.

The target of test [1] is T1, WT STING (Homo sapiens, UniProt Q86WV6, H232R). Put plainly: Digitonin assay using 293T wtSTING-FL reporter cells. The format is cell-based. Details: host or cells: 293T (ATCC CRL-3216), stably transfected, with 4xISRE firefly luciferase reporter. The following applies: 293T wtSTING-FL cells, ISRE firefly luciferase; compounds in Digitonin buffer 30 minutes, then 5 hours; 8-point curve. From the text:
Two complementary oligonucleotides of the sequence […] […] […] […] […] The oligonucleotides were mixed in equal molar amounts, hybridized, and cleaved by restriction endonucleases HindIII (cat. #. R0104S, NEB, Ipswich, USA) and BglII (cat. #R0144S, NEB, Ipswich, USA). Ultimately, they were ligated into plasmid pGL4.27 (cat. #E6651, Promega, Madison, USA) linearized with the same enzymes. As result the sequence with four ISRE sites was placed upstream of the minimum promoter of firefly luciferase reporter gene.
After 5 minutes incubation at room temperature (RT), 250 μL of the mixture was added dropwise to the cells in one well. Cells were incubated 36 hours at 37° C. with 5% CO2, and then detached with 0.05% Trypsin and 0.22 g/L EDTA (both cat. #L0941, Biowest, Riverside, USA).
Transfected cells were seeded onto poly-D-lysine coated six well plates at density 50,000 cells per 1 cm^2 in DMEM medium with high glucose containing 10% heat inactivated FBS, 30 μg/mL blasticidin (cat. #ant-b1-05, InvivoGen, San Diego, USA), 0.06 mg/ml Penicillin G and 0.1 mg/ml Streptomycin Sulfate (both cat. #. L0018, Biowest, Riverside, USA). The medium was replenished every 3-4 days until visible colonies of cells resistant to blasticidin were formed.
Blasticidin resistant cells stably expressing WT STING were further transfected with […] plasmid following the same procedure as described above. […] Homogeneous culture of stably double transfected cells was prepared by limiting dilution of cells in 96 well plates and wells with cells were selected that originated from a single cell.
The medium was removed next day and three fold serial dilutions of compounds in Digitonin buffer containing 50 mmol·l^−1 HEPES (cat. #H3375, Sigma Aldrich, Czech Republic) pH 7.0, 100 mmol·l^−1 KCl, 3 mmol·l^−1 MgCl2, 0.1 mmol·l^−1 DTT (cat. #D0632, Sigma Aldrich, Czech Republic), 85 mmol·l^−1 Sucrose (cat. #S7903, Sigma Aldrich, Czech Republic), 0.2% BSA (cat. #A2153, Sigma Aldrich, Czech Republic), 1 mmol·l^−1 ATP (cat. #A1852, Sigma Aldrich, Czech Republic), 0.1 mmol·l^−1 GTP (cat. #G8877, Sigma Aldrich, Czech Republic), and 10 μg/mL Digitonin A (cat. #D141, Sigma Aldrich, Czech Republic) were added to the cells. The buffer was removed after 30 minutes incubation at 37° C. with 5% CO2, the cells were washed once with 100 μl of cultivation medium, and 100 μl of medium was added to each well. The plates with cells were incubated for 5 hours at 37° C. with 5% CO2, 50 μl of the medium was removed and 30 μl of ONE-Glo™ Luciferase Assay System reagent (cat. #E6120, Promega, Madison, USA) was added to each well. Luminescence was read on Synergy H1 (Biotek, Winooski, USA). GraphPad Prism (La Jolla, USA) was used to calculate the 50% effective concentration ([…] from an 8-point dose-response curve.
Target sequence in this assay (Q86WV6 whole entry H232R): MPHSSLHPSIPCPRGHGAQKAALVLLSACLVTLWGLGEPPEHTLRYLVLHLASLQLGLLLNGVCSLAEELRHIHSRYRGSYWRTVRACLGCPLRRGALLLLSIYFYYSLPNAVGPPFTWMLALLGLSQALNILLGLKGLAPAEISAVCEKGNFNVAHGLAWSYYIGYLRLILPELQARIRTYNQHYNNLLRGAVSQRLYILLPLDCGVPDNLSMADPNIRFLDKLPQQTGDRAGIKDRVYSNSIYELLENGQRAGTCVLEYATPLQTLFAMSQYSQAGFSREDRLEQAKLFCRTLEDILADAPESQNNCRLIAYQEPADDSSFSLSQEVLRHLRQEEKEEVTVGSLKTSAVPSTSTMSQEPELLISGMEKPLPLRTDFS

Test [2] has as its target T1, WT STING. Put plainly: Differential scanning fluorimetry (DSF) with WT STING. The format is binding. Details: 8xHis (N, cleaved yes); SUMO (N, cleaved yes); made in house; host or cells: E. coli Rosetta-gami B (DE3). The conditions noted are these: thermal shift vs apoprotein; 150 μM CDN; truncated human WT STING 0.1 mg/ml. As to the method:
(§1) Purified PCR products were cleaved with restriction enzymes BamHI (cat. #R0136S, NEB, Ipswich, USA) and NotI (cat. #R0189S, NEB, Ipswich, USA) and cloned into the pSUMO vector linearized with the identical enzymes.
(§2) DNase I (cat. #D5025, Sigma Aldrich, Czech Republic) and RNase A (cat. #R6513, Sigma Aldrich, Czech Republic) were added (final concentration 50 μg/ml) together with MgCl2 (final concentration 5 mmol·l^−1) to the homogenate and bacteria were lysed using French Press G-M™ High-Pressure Cell Press Homogenizer (1500 psi, 3 cycles). […] The resin was poured into a chromatography column, washed with 50 ml buffer A (50 mmol·l^−1 TrisCl (pH 8.0), 800 mmol·l^−1 NaCl, 3 mmol·l^−1 β-mercaptoethanol; 10% glycerol; 20 mmol·l^−1 imidazol) and 8-His-SUMO tagged STING proteins were eluted with 15 ml buffer A containing 300 mmol·l^−1 imidazole. […] Proteins were concentrated with Amicon® Ultra-15 10 K device (cat. #UFC901008, Merck Millipore, Billerica, USA) and flash frozen in liquid N2.
(§3) 20 μL solutions of the reaction mixtures were pipetted in triplicates into 96 well optical reaction plates and thermal denaturation of samples were performed on real time PCR cycler (LightCycler® 480 Instrument II—Roche, Basel, Switzerland). The first derivative of the thermal denaturation curves was performed to calculate denaturing temperatures of STING-CDN complexes and STING apoproteins. The thermal shift for each CDN was calculated by subtracting the average denaturing temperature of STING apoprotein from the average denaturing temperature of STING CDN complex.
Target sequence in this assay (Q86WV6 140-343 H232R): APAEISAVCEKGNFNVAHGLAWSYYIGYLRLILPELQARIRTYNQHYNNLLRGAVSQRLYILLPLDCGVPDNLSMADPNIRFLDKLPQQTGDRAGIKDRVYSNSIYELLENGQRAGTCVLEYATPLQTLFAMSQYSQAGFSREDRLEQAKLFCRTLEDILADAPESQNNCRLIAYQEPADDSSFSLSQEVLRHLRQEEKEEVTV

The target of test [3] is T2, AQ STING (G230A-R293Q) (Homo sapiens, UniProt Q86WV6, G230A/H232R/R293Q).
T2 construct: 8xHis (N, cleaved yes); SUMO (N, cleaved yes); made in house; host or cells: E. coli Rosetta-gami B (DE3)
Description: Differential scanning fluorimetry (DSF) with AQ STING. The format is binding. The conditions noted are these: thermal shift vs apoprotein; 150 μM CDN; truncated human AQ STING 0.1 mg/ml. As to the method: as §1, §2, §3

For test [4], the system named is peripheral blood mononuclear cells (PBMC). Put plainly: Peripheral blood mononuclear cell (PBMC) assay. The following applies: 1 h with compounds, washed, 15 hour incubation, average of one to four donors. The format is cell-based. The protocol:
Selected compounds were tested in an in vitro peripheral blood mononuclear cell (PBMC) assay. […] Serially diluted tested compounds were added to wells in 50 μl of cultivation medium and cell were incubated with compounds for 1 h at 37° C. with 5% CO2. Plates with cells were then spun 500 g for 5 minutes and medium was removed. Cells were washed twice with the cell culture medium by the use of centrifugation and gently resuspended in 100 μl medium without compounds. After 15 hour incubation at 37° C. with 5% CO2, the cell culture medium was collected and the levels of interferon-alpha (INF-α), interferon-gamma (INF-γ) and tumor necrosis factor-alpha (TNF-α) were determined with ProcartaPlex Assays (ThermoFisher, Waltham, USA) and MAGPIX System (Merck KGaA, Darmstadt, Germany). […] Values reported are an average of runs from one to four donors.

T2 sequence (Q86WV6 140-343 G230A/H232R/R293Q): as the sequence (Q86WV6 140-343 H232R) above, with G91A, R154Q counted along it

For the compound `Nc1ncnc2c1ncn2[C@@H]1C[C@@H]2COP(=O)(S)OC3C(F)[C@H](n4cnc5c(N)ncnc54)O[C@@H]3COP(=O)(S)OC2C1F` (single isomer, unassigned) [Compound 102c], the EC50 in test [1] worked out at 10 nM.
For `Nc1nc2c(ncn2[C@@H]2C[C@@H]3COP(=O)(O)OC4C(F)[C@H](n5cnc6c(N)ncnc65)O[C@@H]4COP(=O)(O)OC3C2O)c(=O)[nH]1` (single isomer, unassigned) [Compound 103], in test [2], the “DSF ΔTm (° C.) WT STING” value turned out to be 7.6 °C. Further, the “DSF ΔTm (° C.) AQ STING” value in test [3] worked out at 16.6 °C. Moreover, the EC50 in test [1] was 10 nM.
In the same order, the values of `Nc1nc2c(ncn2[C@@H]2C[C@@H]3COP(=O)(O)OC4C(F)[C@H](n5cnc6c(N)ncnc65)O[C@@H]4COP(=O)(O)OC3C2O)c(=O)[nH]1` (single isomer, unassigned) [Compound 105] are 0.8 °C, 7.0 °C and 1600 nM.
With `Nc1nc2c(ncn2[C@@H]2O[C@@H]3COP(=O)(O)OC4C(O)[C@H](n5cnc6c(N)ncnc65)C[C@@H]4COP(=O)(O)OC3C2F)c(=O)[nH]1` (single isomer, unassigned) [Compound 109], the “DSF ΔTm (° C.) WT STING” value in test [2] stood at 8.9 °C. Besides, the ΔTm at 150 µM in test [3] was determined as 18.5 °C. For the same compound, the EC50 in test [1] was 10 nM.
As for `Nc1nc2c(ncn2[C@@H]2O[C@@H]3COP(=O)(O)OC4C(O)[C@H](n5cnc6c(N)ncnc65)C[C@@H]4COP(=O)(O)OC3C2F)c(=O)[nH]1` (single isomer, unassigned) [Compound 111], in test [2], the “DSF ΔTm (° C.) WT STING” value stood at 4.1 °C. In addition, the “DSF ΔTm (° C.) AQ STING” value in test [3] stood at 13.7 °C. Moreover, the EC50 in test [1] was determined as 70 nM.
Take `Nc1ncnc2c1ncn2[C@@H]1C[C@@H]2COP(=O)(S)O[C@@H]3[C@@H](COP(=O)(S)O[C@H]2[C@H]1F)C[C@@H](n1cnc2c(N)ncnc21)[C@@H]3F` (single isomer, unassigned) [Compound 128a]: the ΔTm at 150 µM in test [2] was 9.6 °C; in test [3], 14.8 °C. For the same compound, in test [1], the EC50 stood at 10 nM.
In the same order, the values of `Nc1nc2c(ncn2[C@H]2CC3OP(=O)(S)OC[C@H]4O[C@@H](n5cnc6c(N)ncnc65)C(F)C4OP(=O)(S)OC[C@H]3C2)c(=O)[nH]1` (single isomer, unassigned) [Compound 129a] are 6.4 °C, 14 °C and 100 nM.
Regarding `Nc1nc2c(ncn2[C@H]2CC3OP(=O)(S)OC[C@H]4O[C@@H](n5cnc6c(N)ncnc65)C(F)C4OP(=O)(S)OC[C@H]3C2)c(=O)[nH]1` (single isomer, unassigned) [Compound 129b], the “DSF ΔTm (° C.) WT STING” value in test [2] was found to be 7.0 °C. Further, the “DSF ΔTm (° C.) AQ STING” value in test [3] came to 13.2 °C. Further, the EC50 in test [1] was found to be 200 nM.
In the case of `Nc1nc2c(ncn2[C@@H]2C[C@@H]3COP(=O)(S)O[C@H]4[C@@H](F)[C@H](n5cnc6c(N)ncnc65)O[C@@H]4COP(=O)(S)O[C@H]3C2)c(=O)[nH]1` (single isomer, unassigned) [Compound 129c], the “DSF ΔTm (° C.) WT STING” value in test [2] was determined as 6.4 °C. Further, in test [3], the ΔTm at 150 µM was found to be 13.2 °C. Further, the EC50 in test [1] is 400 nM.
With `Nc1nc2c(ncn2[C@@H]2O[C@@H]3COP(=O)(S)O[C@@H]4[C@@H](COP(=O)(S)O[C@H]3[C@H]2F)C[C@@H](n2cnc3c(N)ncnc32)[C@@H]4F)c(=O)[nH]1` (single isomer, unassigned) [Compound 132a], the ΔTm at 150 µM amounted to 12.9 °C in test [2] and 19.9 °C in test [3]. Besides, the EC50 in test [1] was 8 nM.
Turning to `Nc1ncnc2c1ncn2[C@@H]1C[C@@H]2COP(=O)(O)OC3C(F)[C@H](n4cnc5c(N)ncnc54)O[C@@H]3COP(=O)(S)OC2C1F` (single isomer, unassigned) [Compound 141a], the “DSF ΔTm (° C.) WT STING” value in test [2] was determined as 0.3 °C. The “DSF ΔTm (° C.) AQ STING” value in test [3] is 3.9 °C. Besides, the EC50 in test [1] turned out to be 3000 nM.
As to `Nc1ncnc2c1ncn2[C@@H]1C[C@@H]2COP(=O)(S)O[C@H]3C[C@H](n4cnc5c(N)ncnc54)O[C@@H]3COP(=O)(S)O[C@H]2[C@H]1F` (single isomer, unassigned) [Compound 142a], the EC50 in test [1] worked out at 30 nM.
`CC(C)(C)C(=O)OCSP1(=O)OC[C@H]2O[C@@H](n3cnc4c(=O)[nH]c(N)nc43)[C@H](F)[C@@H]2OP(=O)(SCOC(=O)C(C)(C)C)OC[C@H]2C[C@@H](n3cnc4c(N)ncnc43)[C@H](F)[C@@H]2O1` (single isomer, unassigned) [Compound 150a]: the EC50 worked out at 1 µM in test [4] (interferon-alpha level, read-out: PBMC EC50 (μM) IFN-α); 0.7 µM in test [4] (interferon-gamma level, read-out: PBMC EC50 (μM) IFN-γ); 0.7 µM in test [4] (tumor necrosis factor-alpha level, read-out: PBMC EC50 (μM) TNF-α).
Consider `COC1C2OP(=O)(O)OC[C@H]3C[C@@H](n4cnc5c(=O)[nH]c(N)nc54)C(O)C3OP(=O)(O)OC[C@H]2O[C@H]1n1cnc2c(N)ncnc21` (stereo partly drawn) [Compound 118, (6R,8R,15R,17R)-17-(2-amino-6-oxo-6,9-dihydro-1H-purin-9-yl)-8-(6-amino-9H-purin-9-yl)-3,12,18-trihydroxy-9-methoxy-2,4,7,11,13-pentaoxa-3λ^5,12λ^5-diphosphatricyclo[13.3.0.0^6,10]octadecane-3,12-dione], for which the figures for the ΔTm at 150 µM in test [2] and in test [3] were 0.5 °C and 1.5 °C, respectively.
